According to patent US20080220977A1, “Computational strategy for discovering druggable gene networks from genome-wide RNA expression profiles” (GNI Ltd., priority 2005, published 2008):

Tested on: human endothelial cells
Experiment: Fenofibrate time-course microarray in human endothelial cells, GO Term Finder clusters of selected genes
Settings: 25 μM fenofibrate, 18 hours microarray

CC(C)OC(=O)C(C)(C)Oc1ccc(C(=O)c2ccc(Cl)cc2)cc1 [fenofibrate]
# genes in GO annotation: cellular lipid metabolism (GO:0044255) (overexpressed genes): 21
# genes in GO annotation: cholesterol biosynthesis (GO:0006695) (overexpressed genes): 5
# genes in GO annotation: cholesterol metabolism (GO:0008203) (overexpressed genes): 7
# genes in GO annotation: lipid metabolism (GO:0006629) (overexpressed genes): 25
# genes in GO annotation: steroid biosynthesis (GO:0006694) (overexpressed genes): 7
# genes in GO annotation: steroid metabolism (GO:0008202) (overexpressed genes): 10
# genes in GO annotation: sterol biosynthesis (GO:0016126) (overexpressed genes): 6
# genes in GO annotation: sterol metabolism (GO:0016125) (overexpressed genes): 8
# genes in GO annotation: M phase (GO:0000279) (suppressed genes): 17
# genes in GO annotation: M phase of mitotic cell cycle (GO:0000087) (suppressed genes): 15
# genes in GO annotation: RNA splicing, via transesterification reactions (GO:0000375) (suppressed genes): 9
# genes in GO annotation: RNA splicing, via transesterification reactions with bulged adenosine as nucleophile (GO:0000377) (suppressed genes): 9
# genes in GO annotation: cell cycle (GO:0007049) (suppressed genes): 35
# genes in GO annotation: mRNA metabolism (GO:0016071) (suppressed genes): 13
# genes in GO annotation: mitosis (GO:0007067) (suppressed genes): 15
# genes in GO annotation: mitotic cell cycle (GO:0000278) (suppressed genes): 19
# genes in GO annotation: nuclear mRNA splicing, via spliceosome (GO:0000398) (suppressed genes): 9
# genes in GO annotation: regulation of cell cycle (GO:0000074) (suppressed genes): 22
